Data reported in publication PMC3260207, “Site-Directed Mutations and the Polymorphic Variant Ala160Thr in the Human Thromboxane Receptor Uncover a Structural Role for Transmembrane Helix 4” (PLoS ONE, 2012).
Numbering of substitutions follows the chain as printed.

Columns and labels:
Assay in all cases: Intracellular calcium mobilization (Fluo-4NW) in transfected HEK293T cells
Assay type in all cases: cell-based
Settings in all cases: read-out: EC50 of agonist U46619 (calcium mobilized), transiently transfected HEK293T cells, mean ± S.E
[1] = biological target: T1, TP A160T mutant (nsSNP variant) (Homo sapiens, UniProt P21731, A160T)
T1 construct: expressed in transfected cells; HEK293T (calcium assays)
T1 sequence (P21731 1-343 A160T): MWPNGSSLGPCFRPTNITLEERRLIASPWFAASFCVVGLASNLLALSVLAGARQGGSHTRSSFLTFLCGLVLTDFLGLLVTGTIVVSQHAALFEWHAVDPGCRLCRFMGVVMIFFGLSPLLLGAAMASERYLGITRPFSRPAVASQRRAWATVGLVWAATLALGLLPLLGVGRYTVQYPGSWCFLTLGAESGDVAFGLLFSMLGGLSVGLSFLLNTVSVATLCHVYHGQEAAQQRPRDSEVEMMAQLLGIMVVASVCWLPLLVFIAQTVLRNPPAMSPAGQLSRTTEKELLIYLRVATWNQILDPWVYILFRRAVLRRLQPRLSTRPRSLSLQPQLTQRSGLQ
Method: (§1) Amino acid substitutions were introduced into the synthetic TPα gene carried by the expression vector pMT4 as described previously, [29]. DNA sequences of all the mutated genes were verified by automated DNA sequencing. To minimize variations in transfection efficiency, the total amount transfected DNA was kept constant in all cases at 1 µg of DNA per 7×10^5 cells. The wild type TP or mutant genes were expressed in COS-1 cells using a DEAE-dextran based transient transfection method, [29], and in HEK293T cells using lipofectamine 2000 (Invitrogen). Except unless specified, the membranes prepared from COS-1 cells were used for radioligand binding assays and immunoblots. For intracellular calcium determination assays and immunofluorescence imaging, HEK293T cells were used. For transient transfections of HEK293T cells using the plasmid pMT4, lipofectamine 2000 (Invitrogen) mediated transfection was used as described by the manufacturer. Membranes were prepared using Buffers A and B and as described previously, [29]. The protein concentration in the resuspended membrane pellet was determined using a modified DC protein assay kit from Bio-Rad Laboratories (Hercules, CA).
(§2) Changes in intracellular calcium were measured by using the fluorescent calcium sensitive dye Fluo-4NW (Invitrogen). After 6–8 hours of transient transfection of HEK293T cells using lipofectamine 2000, 100,000 viable cells were plated into each well of a 96-well tissue culture treated BD-falcon optilux plates. Cells mock transfected with vector pMT4 alone were used as a negative control. Following 24 hours of incubation at 37°C, the media was removed and cells were incubated with the dye Fluo-4NW (Invitrogen) containing 77 µg/ml of probenecid for 1 hour, as recommended by the manufacturer. […] Dose–response curves were generated and EC50 values calculated by nonlinear regression analysis using PRISM software version 5.0 (GraphPad Software Inc, San Diego, CA) after subtracting the responses of mock-transfected cells stimulated with same concentrations of agonists.

TP G164A mutant = biological target: T2, TP G164A mutant (Homo sapiens, UniProt P21731, G164A)
T2 construct: expressed in transfected cells; HEK293T (calcium assays)
T2 sequence (P21731 1-343 G164A): T1 sequence (P21731 1-343 A160T) with T160A, G164A
Method: as §1, §2

TP G164V mutant = biological target: T3, TP G164V mutant (Homo sapiens, UniProt P21731, G164V)
T3 construct: expressed in transfected cells; HEK293T (calcium assays)
T3 sequence (P21731 1-343 G164V): T1 sequence (P21731 1-343 A160T) with T160A, G164V
Method: as §1, §2

TP V110A mutant = biological target: T4, TP V110A mutant (Homo sapiens, UniProt P21731, V110A)
T4 construct: expressed in transfected cells; HEK293T (calcium assays)
T4 sequence (P21731 1-343 V110A): T1 sequence (P21731 1-343 A160T) with V110A, T160A
Method: as §1, §2

EC50 [1]: 5.5 ± 0.3 nM
EC50 (TP G164A mutant): 2.5 ± 0.2 nM
EC50 (TP G164V mutant): 38 ± 2.1 nM
EC50 (TP V110A mutant): 2.7 ± 0.2 nM
SMILES: CCCCC[C@H](O)/C=C/[C@@H]1[C@@H](C/C=C\CCCC(=O)O)[C@H]2CO[C@@H]1C2 [U46619]
